Publication PMC10178204, “Peptaibol Analogs Show Potent Antibacterial Activity against Multidrug Resistant Opportunistic Pathogens” (International Journal of Molecular Sciences, 2023)
≈ marks a conversion by molar mass, not a printed value. Where “and” joins values, the source holds several entries; their conditions need not be identical. Identical values can stand only once. Non-standard residues stand in square brackets, D forms with d. Residues, ends and D or L forms follow the SMILES beside them. *: point of attachment. Leu(ol) = CC(C)C[C@H](N)CO; Octanoyl = CCCCCCCC(=O)*; Aib = CC(C)(N)C(=O)O

How the values were obtained:
[1] = test system: P. aeruginosa VR-143/97 (VIM-1); conditions: MHB, 5 × 10^5 CFU/mL, 18 h, 35 °C, triplicate
Protocol: (§1) The minimum inhibitory concentration (MIC) and the minimum bactericidal concentration (MBC) of the compounds were determined in triplicate using Mueller–Hinton broth (MHB). […] Therefore, we decided to dissolve all peptides in DMSO to a final concentration of 25 mg/mL, for consistency. The bacteria inoculum was 5 × 10^5 CFU/mL, as recommended by CLSI (Document M07-A10, 2015). […] Reference-type strains, including representatives of both Gram-positive bacteria (Bacillus subtilis ATCC 6633, Enterococcus faecalis ATCC 29212, Staphylococcus aureus ATCC 25923, the methicillin-resistant Staphylococcus aureus ATCC 43300 (MRSA), Streptococcus pyogenes ATCC 12344) and Gram-negative bacteria (Escherichia coli CCUGT, Klebsiella pneumoniae ATCC 13833, Pseudomonas aeruginosa ATCC 27853, and Acinetobacter baumannii ATCC 17978), were acquired from ATCC or CCUG culture collections. Other antibiotic-resistant clinical isolates were present in our collection at the University Teaching Hospital (Azienda Ospedaliero-Universitaria Senese ‘Santa Maria alle Scotte’) in Siena, Tuscany, Italy. Specifically, MDR carbapenem-hydrolyzing class D β-lactamase-producing Acinetobacter baumannii and metallo-β-lactamase-producing Pseudomonas aeruginosa were used in this study (Table 4).

[2] = test system: S. aureus ATCC 43300 (MRSA); conditions: MHB, 5 × 10^5 CFU/mL, 18 h, 35 °C, triplicate
Protocol: as §1

[3] = test system: A. baumannii SI-310 (OXA-24); conditions: colistin-resistant isolate; MHB, 5 × 10^5 CFU/mL, 18 h, 35 °C, triplicate
Protocol: as §1

[4] = test system: P. aeruginosa VA-182/00 (VIM-2); conditions: MHB, 5 × 10^5 CFU/mL, 18 h, 35 °C, triplicate
Protocol: as §1

[5] = test system: A. baumannii SI-12 (OXA-23); conditions: MHB, 5 × 10^5 CFU/mL, 18 h, 35 °C, triplicate
Protocol: as §1

[6] = test system: A. baumannii SI-648 (OXA-23, OXA-51-like); conditions: MHB, 5 × 10^5 CFU/mL, 18 h, 35 °C, triplicate
Protocol: as §1

[7] = test system: P. aeruginosa 101/1477 (IMP-1); conditions: MHB, 5 × 10^5 CFU/mL, 18 h, 35 °C, triplicate
Protocol: as §1

[8] = test system: P. aeruginosa 506/99 (VIM-2); conditions: MHB, 5 × 10^5 CFU/mL, 18 h, 35 °C, triplicate
Protocol: as §1

[9] = test system: Pseudomonas aeruginosa ATCC 27853; conditions: MHB, 5 × 10^5 CFU/mL, 18 h, 35 °C, triplicate
Summary of the method: (§2)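 Broth microdilution in Mueller–Hinton broth, run in triplicate, inoculum 5 × 10^5 CFU/mL per CLSI M07-A10; MIC and MBC both determined. Peptides dissolved in DMSO at 25 mg/mL as stock.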

[10] = test system: Escherichia coli CCUGT; conditions: MHB, 5 × 10^5 CFU/mL, 18 h, 35 °C, triplicate
Summary of the method: as §2

[11] = test system: Bacillus subtilis ATCC 6633; conditions: MHB, 5 × 10^5 CFU/mL, 18 h, 35 °C, triplicate
Summary of the method: as §2

[12] = test system: reference Gram-positive and Gram-negative strains; conditions: for lowest MIC: lowest value over the eight reference strains
Summary of the method: as §2

[13] = test system: Enterococcus faecalis ATCC 29212; conditions: MHB, 5 × 10^5 CFU/mL, 18 h, 35 °C, triplicate
Summary of the method: as §2

[14] = test system: Acinetobacter baumannii ATCC 17978; conditions: for MBC Aba / MIC Aba: MHB, 5 × 10^5 CFU/mL, 18 h, 35 °C, triplicate; for MIC against A. baumannii, in molar units: corresponding to 2 and 8 μg/mL
Summary of the method: as §2

[15] = test system: Staphylococcus aureus ATCC 25923; conditions: MHB, 5 × 10^5 CFU/mL, 18 h, 35 °C, triplicate
Summary of the method: as §2

[16] = test system: Streptococcus pyogenes ATCC 12344; conditions: MHB, 5 × 10^5 CFU/mL, 18 h, 35 °C, triplicate
Summary of the method: as §2

[17] = test system: Klebsiella pneumoniae ATCC 13833; conditions: MHB, 5 × 10^5 CFU/mL, 18 h, 35 °C, triplicate
Summary of the method: as §2

[18] = test system: blood agar plate (Columbia CNA Agar); test: Hemolysis on blood agar plate; conditions: 50 μg peptide (2 μL of 25 mg/mL in DMSO) spotted on blood agar, 35 ± 2 °C, 24 h, visual, triplicate
Summary of the method: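 Peptides (50 μg, from 25 mg/mL DMSO solution) spotted on Columbia CNA blood agar, incubated at 35 ± 2 °C for 24 h. Hemolysis zone diameter measured visually, averaged over triplicates. Triton X-100 positive, DMSO negative control.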

Molecule: CCCCCCCC(=O)NC(C)(C)C(=O)N[C@@H](CCCCN)C(=O)N[C@@H](CC(C)C)C(=O)NC(C)(C)C(=O)N[C@@H](CCCCN)C(=O)NCC(=O)N[C@@H](CC(C)C)C(=O)NC(C)(C)C(=O)NCC(=O)N[C@H](C(=O)N[C@H](CO)CC(C)C)[C@@H](C)CC [Peptide 1, 1-Oct-Aib-Lys-Leu-Aib-Lys-Gly-Leu-Aib-Gly-Ile-Lol] (Octanoyl-[Aib]KL[Aib]KGL[Aib]GI[Leu(ol)])
- MBC P. aeruginosa VR-143/97 (VIM-1) [1]: 32 µg/mL (≈ 26.5 µM)
- MIC P. aeruginosa VR-143/97 (VIM-1) [1]: 32 µg/mL (≈ 26.5 µM)
- MBC S. aureus ATCC 43300 (MRSA) [2]: 2 µg/mL (≈ 1.65 µM)
- MIC S. aureus ATCC 43300 (MRSA) [2]: 2 µg/mL (≈ 1.65 µM)
- MBC A. baumannii SI-310 (OXA-24) [3]: 4 µg/mL (≈ 3.31 µM)
- MIC A. baumannii SI-310 (OXA-24) [3]: 4 μg/mL and 4/4 μg/mL
- MBC P. aeruginosa VA-182/00 (VIM-2) [4]: 16 µg/mL (≈ 13.2 µM)
- MIC P. aeruginosa VA-182/00 (VIM-2) [4]: 16 µg/mL (≈ 13.2 µM)
- MBC A. baumannii SI-12 (OXA-23) [5]: 8 µg/mL (≈ 6.62 µM)
- MIC A. baumannii SI-12 (OXA-23) [5]: 4 µg/mL (≈ 3.31 µM)
- MBC A. baumannii SI-648 (OXA-23, OXA-51-like) [6]: 16 µg/mL (≈ 13.2 µM)
- MIC A. baumannii SI-648 (OXA-23, OXA-51-like) [6]: 8 µg/mL (≈ 6.62 µM)
- MBC P. aeruginosa 101/1477 (IMP-1) [7]: 16 µg/mL (≈ 13.2 µM)
- MIC P. aeruginosa 101/1477 (IMP-1) [7]: 8 µg/mL (≈ 6.62 µM)
- MBC P. aeruginosa 506/99 (VIM-2) [8]: 32 µg/mL (≈ 26.5 µM)
- MIC P. aeruginosa 506/99 (VIM-2) [8]: 16 µg/mL (≈ 13.2 µM)
- MIC Pae [9]: 16 µg/mL (≈ 13.2 µM)
- MBC Eco [10]: 32 µg/mL (≈ 26.5 µM)
- MIC Eco [10]: 32 µg/mL (≈ 26.5 µM)
- MBC Bsu [11]: 16 µg/mL (≈ 13.2 µM)
- MIC Bsu [11]: 4 µg/mL (≈ 3.31 µM)
- lowest MIC [12]: 2 µg/mL
- MBC Efa [13]: 2 µg/mL (≈ 1.65 µM)
- MIC Efa [13]: 2 µg/mL (≈ 1.65 µM)
- MBC Aba [14]: 16 µg/mL (≈ 13.2 µM)
- MIC Aba [14]: 4 µg/mL (≈ 3.31 µM)
- MIC against A. baumannii, in molar units [14]: 1.8 to 7.2 µM
- MIC Sau [15]: 16 µg/mL (≈ 13.2 µM)
- MBC Spy [16]: 4 µg/mL (≈ 3.31 µM)
- MIC Spy [16]: 2 µg/mL (≈ 1.65 µM)
- MIC Kpn [17]: > 128 µg/mL

Molecule: 1-Oct-Aib-Gly-Leu-Aib-Lys-Lys-Leu-Aib-Lys-Ile-Lol [Peptide 5]
- MBC P. aeruginosa VR-143/97 (VIM-1) [1]: 8 µg/mL
- MIC P. aeruginosa VR-143/97 (VIM-1) [1]: 8 µg/mL
- MBC S. aureus ATCC 43300 (MRSA) [2]: 2 µg/mL
- MIC S. aureus ATCC 43300 (MRSA) [2]: 2 µg/mL
- MBC A. baumannii SI-310 (OXA-24) [3]: 4 µg/mL
- MIC A. baumannii SI-310 (OXA-24) [3]: 2 µg/mL
- MBC P. aeruginosa VA-182/00 (VIM-2) [4]: 8 µg/mL
- MIC P. aeruginosa VA-182/00 (VIM-2) [4]: 8 µg/mL
- MBC A. baumannii SI-12 (OXA-23) [5]: 4 µg/mL
- MIC A. baumannii SI-12 (OXA-23) [5]: 4 μg/mL and 4/4 μg/mL
- MBC A. baumannii SI-648 (OXA-23, OXA-51-like) [6]: 4 µg/mL
- MIC A. baumannii SI-648 (OXA-23, OXA-51-like) [6]: 4 μg/mL and 4/4 μg/mL
- MBC P. aeruginosa 101/1477 (IMP-1) [7]: 8 µg/mL
- MIC P. aeruginosa 101/1477 (IMP-1) [7]: 8 µg/mL
- MBC P. aeruginosa 506/99 (VIM-2) [8]: 8 µg/mL
- MIC P. aeruginosa 506/99 (VIM-2) [8]: 8 µg/mL
- MBC Pae [9]: > 16 µg/mL
- MIC Pae [9]: 8 µg/mL
- MBC Eco [10]: > 16 µg/mL
- MIC Eco [10]: 8 µg/mL
- MBC Bsu [11]: 16 µg/mL
- MIC Bsu [11]: 8 µg/mL
- MIC against six of the eight bacterial strains tested ([12]; reference panel): 4 to 8 µg/mL
- MIC against the other two strains ([12]; reference panel): 16 µg/mL
- MBC Efa [13]: 8 µg/mL
- MIC Efa [13]: 4 µg/mL
- MBC Aba [14]: 16 µg/mL
- MIC Aba [14]: 4 µg/mL
- MIC against A. baumannii, in molar units [14]: 1.8 to 7.2 µM
- MBC Sau [15]: 16 µg/mL
- MIC Sau [15]: 16 µg/mL
- MBC Spy [16]: 4 µg/mL
- MIC Spy [16]: 4 µg/mL
- MBC Kpn [17]: 16 µg/mL
- MIC Kpn [17]: 16 µg/mL

Molecule: CCCCCCCC(=O)NC(C)(C)C(=O)N[C@@H](CCCCN)C(=O)N[C@@H](CC(C)C)C(=O)NC(C)(C)C(=O)N[C@@H](CCCCN)C(=O)N[C@@H](CCCCN)C(=O)N[C@@H](CC(C)C)C(=O)NC(C)(C)C(=O)NCC(=O)N[C@H](C(=O)N[C@@H](CC(C)C)C(N)=O)[C@@H](C)CC [Peptide 11, 1-Oct-Aib-Lys-Leu-Aib-Lys-Lys-Leu-Aib-Gly-Ile-Leu-NH2] (Octanoyl-[Aib]KL[Aib]KKL[Aib]GIL-NH2)
- MBC P. aeruginosa VR-143/97 (VIM-1) [1]: 8 µg/mL (≈ 6.19 µM)
- MIC P. aeruginosa VR-143/97 (VIM-1) [1]: 8 µg/mL (≈ 6.19 µM)
- MBC S. aureus ATCC 43300 (MRSA) [2]: 2 µg/mL (≈ 1.55 µM)
- MIC S. aureus ATCC 43300 (MRSA) [2]: 2 µg/mL (≈ 1.55 µM)
- MBC A. baumannii SI-310 (OXA-24) [3]: 4 µg/mL (≈ 3.09 µM)
- MIC A. baumannii SI-310 (OXA-24) [3]: 2 µg/mL (≈ 1.55 µM)
- MBC P. aeruginosa VA-182/00 (VIM-2) [4]: 32 µg/mL (≈ 24.8 µM)
- MIC P. aeruginosa VA-182/00 (VIM-2) [4]: 8 µg/mL (≈ 6.19 µM)
- MBC A. baumannii SI-12 (OXA-23) [5]: 32 µg/mL (≈ 24.8 µM)
- MIC A. baumannii SI-12 (OXA-23) [5]: 32 μg/mL and 32/32 μg/mL
- MBC A. baumannii SI-648 (OXA-23, OXA-51-like) [6]: 4 µg/mL (≈ 3.09 µM)
- MIC A. baumannii SI-648 (OXA-23, OXA-51-like) [6]: 2 µg/mL (≈ 1.55 µM)
- MBC P. aeruginosa 101/1477 (IMP-1) [7]: 8 µg/mL (≈ 6.19 µM)
- MIC P. aeruginosa 101/1477 (IMP-1) [7]: 8 µg/mL (≈ 6.19 µM)
- MBC P. aeruginosa 506/99 (VIM-2) [8]: 16 µg/mL (≈ 12.4 µM)
- MIC P. aeruginosa 506/99 (VIM-2) [8]: 8 µg/mL (≈ 6.19 µM)
- MBC Eco [10]: 128 µg/mL (≈ 99 µM)
- MIC Eco [10]: 16 µg/mL (≈ 12.4 µM)
- MBC Bsu [11]: 16 µg/mL (≈ 12.4 µM)
- MIC Bsu [11]: 2 µg/mL (≈ 1.55 µM)
- lowest MIC [12]: 2 µg/mL
- MBC Efa [13]: 32 µg/mL (≈ 24.8 µM)
- MIC Efa [13]: 4 µg/mL (≈ 3.09 µM)
- MBC Aba [14]: 2 µg/mL (≈ 1.55 µM)
- MIC Aba [14]: 2 µg/mL (≈ 1.55 µM)
- MIC against A. baumannii, in molar units [14]: 1.8 to 7.2 µM
- MIC Sau [15]: 16 µg/mL (≈ 12.4 µM)
- MBC Spy [16]: 16 µg/mL (≈ 12.4 µM)
- MIC Spy [16]: 4 µg/mL (≈ 3.09 µM)
- MIC Kpn [17]: > 128 µg/mL
- Hemolysis (class) [18]: -
